In patent US7786127B2, “Benzimidazole thiophene compounds” (Glaxo SmithKline LLC, priority 2005, dated 2010) one finds IC50 data, which are given here for two compounds.

What all share (format): cell-based
One test deals with MCF7. As to the kind of experiment: Methylene blue growth inhibition assay, MCF7. To be noted: Homo sapiens, 72 h. The method, then:
(§1) Generally, exponentially growing cell lines of different tumor origins, cultured in appropriate media containing 10% fetal bovine serum at 37° C. in a 5% CO2 incubator were plated at low density (less than 2000 cells/well) in 96-well plates. Twenty four hours post-plating, cells were treated with different concentrations of test compounds ranging from 10 uM to 0.04 nM. Several wells were left untreated as a control. Seventy two hours post-treatment, cell numbers were determined using 10 μl per well of methylene blue (Sigma M9140) (0.5% in 50:50 Ethanol:water). […] Plates were read on a microplate reader, measuring the OD at 620 nm. […]
(§2) In one assay, normal human foreskin fibroblasts (HFF), human colon (HCT116, RKO), lung (H460, A549) and breast (MCF7) tumor cell lines were cultured in high glucose DMEM (Life Technologies) containing 10% fetal bovine serum (FBS) at 37° C. in a humidified 5% CO2, 95% air incubator. Cells were harvested using trypsin/EDTA, counted using a haemocytometer, and plated in 100 μL of culture media per well, at the following densities, in a 96-well tissue culture plate (Falcon 3075): HFF 5,000 cells/well, HCT116 3,000 cells/well, RKO 2,500 cells/well, H460 2,500 cells/well, A549 5,000 cells/well, MCF7 4,000 cells/well. […] Optical density at 620 nm was measured on a microplate reader. […]

The test system of a further test is A549. Put plainly: Methylene blue growth inhibition assay, A549. As to conditions: Homo sapiens, 72 h. The method, then:
as §1, §2

The next test concerns RKO. Put plainly: Methylene blue growth inhibition assay, RKO. To be noted: Homo sapiens, 72 h. How it is done: as §1, §2
Another test concerns HCT116. Put plainly: Methylene blue growth inhibition assay, HCT116. As to conditions: Homo sapiens, HCT-116, 72 h. The method, then:
as §1, §2

The next test has as its system H460. Put plainly: Methylene blue growth inhibition assay, H460. As to conditions: Homo sapiens, NCI-H460, 72 h. The method, then:
as §1, §2

The test system of test [1] is normal human foreskin fibroblasts (HFF). Put plainly: Methylene blue growth inhibition assay, HFF. As to conditions: Fibroblast, 72 h. How it is done:
as §1, §2

Usually IC50 stands for the concentration at which inhibition is half-maximal.

With `C[C@@H](Oc1cc(-n2cnc3ccc(OC4CCN(C)CC4)cc32)sc1C(N)=O)c1ccccc1C(F)(F)F` [Example 7, 5-{6-[(1-Methyl-4-piperidinyl)oxy]-1H-benzimidazol-1-yl}-3-({(1R)-1-[2-(trifluoromethyl)phenyl]ethyl}oxy)-2-thiophenecarboxamide], the concentration for half-maximal inhibition (IC50) is < 100 nM in the test with MCF7; < 100 nM with A549; < 100 nM in the test on RKO; < 100 nM with HCT116; < 100 nM in the test with H460; 100 to 1000 nM in test [1].
On to `C[C@@H](Oc1cc(-n2cnc3ccc(OC4CCN(C)CC4)cc32)sc1C(N)=O)c1ccccc1Cl` [Example 8, 3-{[(1R)-1-(2-Chlorophenyl)ethyl]oxy}-5-{6-[(1-methyl-4-piperidinyl)oxy]-1H-benzimidazol-1-yl}-2-thiophenecarboxamide], for which the IC50 (in the test on A549; in the test with RKO; in the test with HCT116; with H460; in test [1]) was < 100 nM each time.
